Assay results as given in patent publication US8492404B2, “Bis-aryl amide compounds and methods of use” (Amgen Inc., priority 2005, dated 2013).

What was measured:
[1] = target: T1, c-kit kinase enzyme (Homo sapiens, UniProt P10721); assay: cKIT-Homogeneous Time Resolved Fluorescent (HTRF) Kinase Assay; format: biochemical; conditions: read-out: average IC50 value for the inhibition of the c-kit kinase enzyme
T1 construct: cKIT (6.25 μM) (catalytic domain, N-terminal GST tagged, unphosphorylated)
Experimental: cKIT-Homogeneous Time Resolved Fluorescent (HTRF) Kinase Assay:
The purpose of this assay is to measure the inhibition of cKIT enzyme activity (autophosphorylation and phosphorylation of substrate) by small molecule test compounds. The cKIT HTRF assay begins with cKIT-catalyzed phosphorylation of biotinylated peptide Her-2 (N-[…]-C) in the presence of ATP. The cKIT enzyme reaction is comprised of 1 μL of compound in 100% DMSO, 15 μL of 2× substrate mix (50 μM ATP and 2 μM biotinylated Her-2) and 15 μL of 2× cKIT (6.25 μM) (catalytic domain, N-terminal GST tagged, unphosphorylated) in 4 mM DTT all diluted in enzyme buffer (25 mM HEPES pH 7.5, 12.5 mM NaCl, 50 mM MgCl, 0.05% BSA). The reaction incubates for 90 min at room temperature. One-hundred and sixty microliters of detection mixture containing 0.47 μg/mL steptavidin allophycocyanin and 29.7 pM europylated anti-phosphotyrosine Ab (PT66, Perkin Elmer) in HTRF buffer (100 mM Hepes pH 7.5, 100 mM NaCl, 0.1% BSA, 0.05% Tween 20) is then added to stop the reaction by diluting out the enzyme as well as to enable quantitation of phosphorylated Her-2. After 3 h at room temperature, the detection reaction is read in a Packard Discovery™ (model BD1000) plate reader. The wells are excited with coherent […] light and the ratio of delayed ([…] post excitation) emissions at […] (native europium fluorescence) and 665 nm (europium fluorescence transferred to allophycocyanin—an index of substrate phosphorylation) is determined. The proportion of substrate phosphorylated in the kinase reaction in the presence of compound compared with that phosphorylated in the presence of DMSO vehicle alone (HI control) is calculated using the formula: % control (POC)=(cpd−average LO)/(average HI−average LO)*100. Data (consisting of POC and inhibitor concentration in μM) is fitted to a 4-parameter equation (y=A+((B−A)/(1+((x/C)^D))), where A is the minimum y (POC) value, B is the maximum y (POC), C is the x (cpd concentration) at the point of inflection and D is the slope factor) using a Levenburg-Marquardt non-linear regression algorithm.

[2] = target: T2, Lck kinase enzyme (Homo sapiens, UniProt P06239); assay: LCK-Homogeneous Time Resolved Fluorescent (HTRF) Kinase Assay; format: biochemical; conditions: read-out: average IC50 value for the inhibition of the Lck kinase enzyme
T2 construct: LCK KD GST (225-509); GST
Experimental: LCK-Homogeneous Time Resolved Fluorescent (HTRF) Kinase Assay:
The LCK HTRF assay begins with LCK in the presence of ATP phosphorylating the biotinylated peptide Gastrin. The reaction incubates for 90 min. To quench the assay detection reagents are added which both stop the reaction by diluting out the enzyme and chelating the metals due to the presence of EDTA. Once the detection reagents are added the assay incubates for 30 min to allow for equilibration of the detection reagents. […] Buffer conditions are as follows: 50 mM HEPES pH 7.5, 50 mM NaCl, 20 mM MgCl, 5 mM MnCl, 2 mM DTT, 0.05% BSA.
The assay is quenched and stopped with 160 μL of detection reagent. Detection reagents are as follows: Buffer made of 50 mM Tris, pH 7.5, 100 mM NaCl, 3 mM EDTA, 0.05% BSA, 0.1% Tween20.
The assay plate is read in either a Discovery or a RubyStar.

T1 sequence (P10721 589-937 limits assumed): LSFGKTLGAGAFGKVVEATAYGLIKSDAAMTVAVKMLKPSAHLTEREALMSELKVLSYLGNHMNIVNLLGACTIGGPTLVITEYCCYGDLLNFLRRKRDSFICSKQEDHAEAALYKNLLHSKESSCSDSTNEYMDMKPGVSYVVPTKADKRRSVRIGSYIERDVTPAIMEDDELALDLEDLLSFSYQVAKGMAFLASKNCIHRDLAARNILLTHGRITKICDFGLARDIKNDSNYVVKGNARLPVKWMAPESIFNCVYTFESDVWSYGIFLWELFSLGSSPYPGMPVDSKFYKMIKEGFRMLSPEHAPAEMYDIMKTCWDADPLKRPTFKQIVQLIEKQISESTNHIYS
T2 sequence (P06239 225-509): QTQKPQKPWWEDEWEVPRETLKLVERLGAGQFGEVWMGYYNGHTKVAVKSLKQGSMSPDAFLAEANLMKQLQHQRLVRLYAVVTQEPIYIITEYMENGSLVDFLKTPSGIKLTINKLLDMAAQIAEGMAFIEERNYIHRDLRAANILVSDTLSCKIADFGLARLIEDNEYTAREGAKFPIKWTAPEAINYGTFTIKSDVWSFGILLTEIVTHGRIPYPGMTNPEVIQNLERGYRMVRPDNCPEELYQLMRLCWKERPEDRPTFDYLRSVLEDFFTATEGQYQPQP

Row | IC50 [1] | IC50 [2] | Compound
1 | ≤ 10 µM | – | Cc1ccc(NC(=O)c2cccc(C(F)(F)F)c2)cc1C(=O)Nc1cnc(N)nc1 [Example 1, N-(2-amino-5-pyrimidinyl)-2-methyl-5-(((3-(trifluoromethyl)phenyl)carbonyl)amino)benzamide]
2 | ≤ 10 µM | – | Cc1ccc(NC(=O)c2cccc(C(F)(F)F)c2)cc1C(=O)Nc1cnc(NCCN2CCOCC2)nc1 [Example 2]
3 | ≤ 10 µM | ≤ 10 µM | Cc1ccc(NC(=O)Nc2cccc(C(F)(F)F)c2)cc1C(=O)Nc1cncnc1 [Example 88, 1-(4-methyl-3-(pyrimidin-5-ylcarbamoyl)phenyl)-3-(3-(trifluoromethyl)phenyl)urea]
4 | ≤ 10 µM | – | Cc1ccc(NC(=O)Nc2cccc(C(F)(F)F)c2)cc1C(=O)Nc1cnc(N)nc1 [Example 90, N-(2-amino-5-pyrimidinyl)-2-methyl-5-((((3-(trifluoromethyl)phenyl)amino)carbonyl)amino)benzamide]
5 | ≤ 10 µM | ≤ 10 µM | Cc1ccc(NC(=O)c2cc3ccccc3n2C)cc1C(=O)Nc1cnc(Nc2ccc(N3CCN(C)CC3)cc2)nc1 [Example 96, 1-methyl-N-(4-methyl-3-((2-(4-(4-methylpiperazin-1-yl)phenylamino)pyrimidin-5-yl)carbamoyl)phenyl)-1H-indole-2-carboxamide]
6 | ≤ 10 µM | – | Cc1ccc(NC(=O)c2ccc3ncsc3c2)cc1C(=O)Nc1cnc(N)nc1 [Example 109, N-(3-((2-aminopyrimidin-5-yl)carbamoyl)-4-methylphenyl)benzo[d] thiazole-6-carboxamide]
7 | ≤ 10 µM | – | Cc1ccc(NC(=O)c2ccc3[nH]ccc3c2)cc1C(=O)Nc1cnc(N)nc1 [Example 110, N-(3-((2-aminopyrimidin-5-yl)carbamoyl)-4-methylphenyl)-1H-indole-5-carboxamide]
8 | ≤ 10 µM | – | Cc1ccc(NC(=O)c2cc(I)ccc2O)cc1C(=O)Nc1cnc(Nc2ccc(N3CCN(C)CC3)cc2)nc1 [Example 112, 2-hydroxy-5-iodo-N-(4-methyl-3-(((2-((4-(4-methyl-1-piperazinyl)phenyl)amino)-5-pyrimidinyl)amino)carbonyl)phenyl) benzamide]
9 | ≤ 10 µM | – | Cc1ccc(NC(=O)c2ccc(Cl)c(C(F)(F)F)c2)cc1C(=O)Nc1cnc(Nc2ccc(N3CCN(C)CC3)cc2)nc1 [Example 113, 4-chloro-N-(4-methyl-3-(((2-((4-(4-methyl-1-piperazinyl)phenyl)amino)-5-pyrimidinyl)amino)carbonyl)phenyl)-3-(trifluoromethyl) benzamide]
10 | ≤ 10 µM | – | Cc1ccc(NC(=O)c2csc(-c3cccs3)n2)cc1C(=O)Nc1cnc(Nc2ccc(N3CCN(C)CC3)cc2)nc1 [Example 141]
11 | ≤ 10 µM | – | Cc1ccc(C(=O)NCCC2CCCCC2)cc1C(=O)Nc1ccc(N)nc1 [Example 182, N~3~-(6-amino-3-pyridinyl)-N~1~-(2-cyclohexylethyl)-4-methyl-1,3-benzenedicarboxamide]
12 | ≤ 10 µM | – | Cc1ccc(C(=O)NCCC2CCCC2)cc1C(=O)Nc1ccc(NC(=O)c2c[nH]cn2)nc1 [Example 206, N~1~-(2-cyclopentylethyl)-N~3~-(6-((1H-imidazol-4-ylcarbonyl)amino)-3-pyridinyl)-4-methyl-1,3-benzenedicarboxamide]
